Columns and labels:
Format in all cases: physicochemical
[1] = 6 month dry powder stability, HPLC assay
From the text: (§1) NUC-3373 prepared according to Example 3 and Comparative Example 4 was packed into a transparent LDPE bag which was then filled with nitrogen and tied with a strip seal. This bag was then placed into another transparent LDPE bag which was also filled with nitrogen. A silica gel packet was placed between the two bags before the outermost bag was tied with a strip seal. These bags were then placed in a triple laminated sun light barrier bag which was sealed with a heat sealer. The bags were kept in a HDPE container.
(§2) NUC-3373 was initially assayed by HPLC after manufacture (0 months) then after 1 and 2 and/or 3 and 6 months of storage at 2-8° C., 25° C. or 40° C.

[2] = Solution stability, alpha naphthol (0.60 RRT) in DMA:Saline (80:20 v/v); design: 0.60 RRT (Alpha Naphthol): unit not given here; settings: 400 mg/mL in DMA:Saline (80:20 v/v)
Procedure: Stability data is also provided in Table 4, which compares the levels of alpha naphthol (0.60 RRT) present in solutions of 400 mg/mL NUC-3373, prepared by Example 3 or 4, above, in DMA:Saline (80:20 v/v) at different temperatures measured over set periods of time. The tested solutions are suitable for infusion and injection and the temperatures and times measured are representative of the environments that solutions suitable for infusion and injection would typically be stored in.
In Table 4 the two values provided for each temperature at each time period, separated by “/”, represent different preparations (samples) of that synthesis.

[3] = 6 month dry powder stability, Alpha Naphthol content by HPLC
From the text: as §1, §2
The Alpha Naphthol content of the same batches was also determined by HPLC. The levels of the alpha naphthol impurity is a key indicator of stability of the tested material.

[4] = After 1 month at 2-8° C., first preparation (before "/")
[5] = After 1 month at 2-8° C., second preparation (after "/")
[6] = After 1 month at 25 ± 5° C., first preparation (before "/")
[7] = After 1 month at 25 ± 5° C., second preparation (after "/")
[8] = After 3 months at 2-8° C., first preparation (before "/")
[9] = After 3 months at 2-8° C., second preparation (after "/")
[10] = After 3 months at 25 ± 5° C., first preparation (before "/")
[11] = After 3 months at 25 ± 5° C., second preparation (after "/")
[12] = After 6 months at 2-8° C., first preparation (before "/")
[13] = After 6 months at 2-8° C., second preparation (after "/")
[14] = After 6 months at 25 ± 5° C., first preparation (before "/")
[15] = After 6 months at 25 ± 5° C., second preparation (after "/")
[16] = After 9 months at 2-8° C., first preparation (before "/")
[17] = After 9 months at 2-8° C., second preparation (after "/")
[18] = After 9 months at 25 ± 5° C., first preparation (before "/")
[19] = After 9 months at 25 ± 5° C., second preparation (after "/")
[20] = After 15 days at 2-8° C., first preparation (before "/")
[21] = After 15 days at 2-8° C., second preparation (after "/")
[22] = After 15 days at 25 ± 5° C., first preparation (before "/")
[23] = After 15 days at 25 ± 5° C., second preparation (after "/")

C[C@H](NP(=O)(OC[C@H]1O[C@@H](n2cc(F)c(=O)[nH]c2=O)CC1O)Oc1cccc2ccccc12)C(=O)OCc1ccccc1 (stereo partly drawn) [Example 3, Batch 2, 5-fluoro-2′-deoxyuridine-5′-O-[1-naphthyl (benzoxy-L-alaninyl)] phosphate]
Decrease after 6 months, HPLC assay ([1]; 2-8 ° C.): None | HPLC assay (% w/w on anhydrous and solvent free basis) ([1]; 2-8 ° C., 0 months): 100.2 % w/w | HPLC assay (% w/w on anhydrous and solvent free basis) ([1]; 2-8 ° C., 3 months): 101.3 % w/w | HPLC assay (% w/w on anhydrous and solvent free basis) ([1]; 2-8 ° C., 6 months): 100.4 % w/w | Decrease after 6 months, HPLC assay ([1]; 25 ° C.): None | HPLC assay (% w/w on anhydrous and solvent free basis) ([1]; 25 ° C., 0 months): 100.2 % w/w | HPLC assay (% w/w on anhydrous and solvent free basis) ([1]; 25 ° C., 3 months): 101.1 % w/w | HPLC assay (% w/w on anhydrous and solvent free basis) ([1]; 25 ° C., 6 months): 100.7 % w/w | Decrease after 6 months, HPLC assay ([1]; 40 ° C.): None | HPLC assay (% w/w on anhydrous and solvent free basis) ([1]; 40 ° C., 0 months): 100.2 % w/w | HPLC assay (% w/w on anhydrous and solvent free basis) ([1]; 40 ° C., 1 month): 99.7 % w/w | HPLC assay (% w/w on anhydrous and solvent free basis) ([1]; 40 ° C., 2 months): 100.9 % w/w | HPLC assay (% w/w on anhydrous and solvent free basis) ([1]; 40 ° C., 3 months): 101.5 % w/w | HPLC assay (% w/w on anhydrous and solvent free basis) ([1]; 40 ° C., 6 months): 100.4 % w/w | 0.60 RRT (Alpha Naphthol) [2, 4]: 0.02/0.02 | 0.60 RRT (Alpha Naphthol) [2, 5]: 0.02/0.02 | 0.60 RRT (Alpha Naphthol) [2, 6]: 0.04/0.04 | 0.60 RRT (Alpha Naphthol) [2, 7]: 0.04/0.04 | 0.60 RRT (Alpha Naphthol) [2, 8]: 0.02/0.02 | 0.60 RRT (Alpha Naphthol) [2, 9]: 0.02/0.02 | 0.60 RRT (Alpha Naphthol) [2, 10]: 0.11/0.11 | 0.60 RRT (Alpha Naphthol) [2, 11]: 0.11/0.11 | 0.60 RRT (Alpha Naphthol) [2, 12]: 0.03 | 0.60 RRT (Alpha Naphthol) [2, 13]: 0.02 | 0.60 RRT (Alpha Naphthol) [2, 14]: 0.34 | 0.60 RRT (Alpha Naphthol) [2, 15]: 0.35 | 0.60 RRT (Alpha Naphthol) [2, 16]: 0.03/0.03 | 0.60 RRT (Alpha Naphthol) [2, 17]: 0.03/0.03 | 0.60 RRT (Alpha Naphthol) [2, 18]: 0.89/0.89 | 0.60 RRT (Alpha Naphthol) [2, 19]: 0.89/0.89 | 0.60 RRT (Alpha Naphthol) ([2]; After 12 months at 2-8° C., first preparation (before "/")): 0.04/0.04 | 0.60 RRT (Alpha Naphthol) ([2]; After 12 months at 2-8° C., second preparation (after "/")): 0.04/0.04 | 0.60 RRT (Alpha Naphthol) ([2]; After 12 months at 25 ± 5° C., first preparation (before "/")): 1.60/1.60 | 0.60 RRT (Alpha Naphthol) ([2]; After 12 months at 25 ± 5° C., second preparation (after "/")): 1.60/1.60 | 0.60 RRT (Alpha Naphthol) [2, 20]: 0.01/0.01 | 0.60 RRT (Alpha Naphthol) [2, 21]: 0.01/0.01 | 0.60 RRT (Alpha Naphthol) [2, 22]: 0.03 | 0.60 RRT (Alpha Naphthol) [2, 23]: 0.02 | 0.60 RRT (Alpha Naphthol) ([2]; Initial): 0.01 | Increase after 6 months, Alpha Naphthol by HPLC ([3]; 2-8 ° C.): None | Alpha Naphthol by HPLC (% w/w) ([3]; 2-8 ° C., 0 months): 0.44 % w/w | Alpha Naphthol by HPLC (% w/w) ([3]; 2-8 ° C., 3 months): 0.46 % w/w | Alpha Naphthol by HPLC (% w/w) ([3]; 2-8 ° C., 6 months): 0.43 % w/w | Increase after 6 months, Alpha Naphthol by HPLC ([3]; 25 ° C.): None | Alpha Naphthol by HPLC (% w/w) ([3]; 25 ° C., 0 months): 0.44 % w/w | Alpha Naphthol by HPLC (% w/w) ([3]; 25 ° C., 3 months): 0.45 % w/w | Alpha Naphthol by HPLC (% w/w) ([3]; 25 ° C., 6 months): 0.42 % w/w | Increase after 6 months, Alpha Naphthol by HPLC ([3]; 40 ° C.): None | Alpha Naphthol by HPLC (% w/w) ([3]; 40 ° C., 0 months): 0.44 % w/w | Alpha Naphthol by HPLC (% w/w) ([3]; 40 ° C., 1 month): 0.44 % w/w | Alpha Naphthol by HPLC (% w/w) ([3]; 40 ° C., 2 months): 0.42 % w/w | Alpha Naphthol by HPLC (% w/w) ([3]; 40 ° C., 3 months): 0.42 % w/w | Alpha Naphthol by HPLC (% w/w) ([3]; 40 ° C., 6 months): 0.38 % w/w

C[C@H](NP(=O)(OC[C@H]1O[C@@H](n2cc(F)c(=O)[nH]c2=O)CC1O)Oc1cccc2ccccc12)C(=O)OCc1ccccc1 (stereo partly drawn) [Example 3, Batch 1, 5-fluoro-2′-deoxyuridine-5′-O-[1-naphthyl (benzoxy-L-alaninyl)] phosphate]
Decrease after 6 months, HPLC assay ([1]; 2-8 ° C.): None | HPLC assay (% w/w on anhydrous and solvent free basis) ([1]; 2-8 ° C., 0 months): 100.4 % w/w | HPLC assay (% w/w on anhydrous and solvent free basis) ([1]; 2-8 ° C., 3 months): 101.5 % w/w | HPLC assay (% w/w on anhydrous and solvent free basis) ([1]; 2-8 ° C., 6 months): 100.4 % w/w | Decrease after 6 months, HPLC assay ([1]; 25 ° C.): None | HPLC assay (% w/w on anhydrous and solvent free basis) ([1]; 25 ° C., 0 months): 100.4 % w/w | HPLC assay (% w/w on anhydrous and solvent free basis) ([1]; 25 ° C., 3 months): 101.1 % w/w | HPLC assay (% w/w on anhydrous and solvent free basis) ([1]; 25 ° C., 6 months): 100.8 % w/w | Decrease after 6 months, HPLC assay ([1]; 40 ° C.): None | HPLC assay (% w/w on anhydrous and solvent free basis) ([1]; 40 ° C., 0 months): 100.4 % w/w | HPLC assay (% w/w on anhydrous and solvent free basis) ([1]; 40 ° C., 1 month): 100.0 % w/w | HPLC assay (% w/w on anhydrous and solvent free basis) ([1]; 40 ° C., 2 months): 101.5 % w/w | HPLC assay (% w/w on anhydrous and solvent free basis) ([1]; 40 ° C., 3 months): 101.6 % w/w | HPLC assay (% w/w on anhydrous and solvent free basis) ([1]; 40 ° C., 6 months): 100.7 % w/w | 0.60 RRT (Alpha Naphthol) [2, 4]: 0.07/0.07 | 0.60 RRT (Alpha Naphthol) [2, 5]: 0.07/0.07 | 0.60 RRT (Alpha Naphthol) [2, 6]: 0.08/0.08 | 0.60 RRT (Alpha Naphthol) [2, 7]: 0.08/0.08 | 0.60 RRT (Alpha Naphthol) [2, 8]: 0.07/0.07 | 0.60 RRT (Alpha Naphthol) [2, 9]: 0.07/0.07 | 0.60 RRT (Alpha Naphthol) [2, 10]: 0.10 | 0.60 RRT (Alpha Naphthol) [2, 11]: 0.11 | 0.60 RRT (Alpha Naphthol) [2, 12]: 0.07 | 0.60 RRT (Alpha Naphthol) [2, 13]: 0.08 | 0.60 RRT (Alpha Naphthol) [2, 14]: 0.20 | 0.60 RRT (Alpha Naphthol) [2, 15]: 0.22 | 0.60 RRT (Alpha Naphthol) [2, 16]: 0.07 | 0.60 RRT (Alpha Naphthol) [2, 17]: 0.08 | 0.60 RRT (Alpha Naphthol) [2, 18]: 0.42 | 0.60 RRT (Alpha Naphthol) [2, 19]: 0.38 | 0.60 RRT (Alpha Naphthol) [2, 20]: 0.07/0.07 | 0.60 RRT (Alpha Naphthol) [2, 21]: 0.07/0.07 | 0.60 RRT (Alpha Naphthol) [2, 22]: 0.07 | 0.60 RRT (Alpha Naphthol) [2, 23]: 0.08 | 0.60 RRT (Alpha Naphthol) ([2]; Initial): 0.07 | Increase after 6 months, Alpha Naphthol by HPLC ([3]; 2-8 ° C.): None | Alpha Naphthol by HPLC (% w/w) ([3]; 2-8 ° C., 0 months): 0.15 % w/w | Alpha Naphthol by HPLC (% w/w) ([3]; 2-8 ° C., 3 months): 0.16 % w/w | Alpha Naphthol by HPLC (% w/w) ([3]; 2-8 ° C., 6 months): 0.15 % w/w | Increase after 6 months, Alpha Naphthol by HPLC ([3]; 25 ° C.): None | Alpha Naphthol by HPLC (% w/w) ([3]; 25 ° C., 0 months): 0.15 % w/w | Alpha Naphthol by HPLC (% w/w) ([3]; 25 ° C., 3 months): 0.15 % w/w | Alpha Naphthol by HPLC (% w/w) ([3]; 25 ° C., 6 months): 0.14 % w/w | Increase after 6 months, Alpha Naphthol by HPLC ([3]; 40 ° C.): None | Alpha Naphthol by HPLC (% w/w) ([3]; 40 ° C., 0 months): 0.15 % w/w | Alpha Naphthol by HPLC (% w/w) ([3]; 40 ° C., 1 month): 0.15 % w/w | Alpha Naphthol by HPLC (% w/w) ([3]; 40 ° C., 2 months): 0.15 % w/w | Alpha Naphthol by HPLC (% w/w) ([3]; 40 ° C., 3 months): 0.14 % w/w | Alpha Naphthol by HPLC (% w/w) ([3]; 40 ° C., 6 months): 0.13 % w/w

— patent US20250296948A1, “SYNTHESIS OF NUCLEOSIDE DERIVATIVES” (Nucana plc, priority 2022, published 2025)
